{"source": "patent US20250177529A1", "about": "“ACOUSTIC ENRICHMENT OF ADOPTIVE CELL TRANSFERS” (THE REGENTS OF THE UNIVERSITY OF COLORADO, A BODY CORPORATE, priority 2022, published 2025)", "molecules": {"B1": {"name": "IFNγ: inflammatory cytokine, equivalent free dose (protein, UniProt P01580 23-155, looked up)", "Interferon gamma": "HGTVIESLESLNNYFNSSGIDVEEKSLFLDIWRNWQKDGDMKILQSQIISFYLRLFEVLKDNQAISNNISVIESHLITTFFSNSKAKKDAFMSIAKFEVNNPQVQRQAFNELIRVVHQLLPESSLRKRKRSRC"}}, "key": {"[1]": {"details": "in vivo; cited from earlier work"}, "primary macrophages": {"tested_on": "primary macrophages", "assay": "Primary macrophage polarization by IFNγ-containing particles", "format": "cell-based", "details": "compared to controls", "source_text": "FIG. 7 presents exemplary data showing primary macrophage polarization in various conditions.\nFIG. 7A: Normoxia (i.e., standard cell culture conditions) without interferon gamma (IFNγ).\nFIG. 7B: Normoxia with IFNγ.\nFIG. 7C: Tumor-promoting conditions (i.e., in hypoxia (1% 02) and 10 vol. % tumor (4T1)-conditioned media) and bound to IFNγ-containing particles after 24 hrs.\nAs discussed above, discoidal elastomeric particles can encapsulate inflammatory cytokines (i.e., IFNγ) and polarize the cells to which they are bound. […] Macrophages maintained their polarization for 5 days, even when challenged by hypoxia (1% O2) and tumor-conditioned media (i.e., 10 vol. % tumor (4T1)-conditioned media)."}}}
{"molecule": "CC(C)(CNC(=O)c1cccc(-c2noc(C(F)(F)F)n2)c1)c1coc(-c2ccccc2)n1", "note": "[TMP195]", "values": [{"measurement": "maximum tolerated dose (MTD)", "setting": "[1]", "value": 50, "unit": "mg/kg"}]}
{"molecule": "CCOCc1nc2c(N)nc3ccccc3c2n1CC(C)(C)O", "note": "[resiquimod]", "values": [{"measurement": "maximum tolerated dose (MTD)", "setting": "[1]", "value": 5, "unit": "mg/kg"}]}
{"molecule": "B1", "values": [{"measurement": "iNOS expression, fold higher", "setting": "primary macrophages", "value": 1.3, "unit": "fold"}]}
